Experimental data reported in ChEMBL document CHEMBL3045073, “Synthesis of -amino carbonyl derivatives of coumarin and benzofuran and evaluation of their biological activity” (Med Chem Res, 2013).
≈ marks a conversion by molar mass, not a printed value.

Legend:
[1] = tested on: Chrysosporium keratinophilum; assay: Antifungal activity against Chrysosporium keratinophilum assessed as growth inhibition at 0.5 to 1 mg/mL after 72 hr by agar well diffusion method; assay type: functional
Aspergillus flavus [2] = assay: Antifungal activity against Aspergillus flavus assessed as growth inhibition at 0.5 to 1 mg/mL after 72 hr by agar well diffusion method; assay type: functional
Candida albicans [3] = assay: Antifungal activity against Candida albicans NCPF 3179 assessed as growth inhibition at 0.5 to 1 mg/mL after 72 hr by agar well diffusion method; assay type: functional
Staphylococcus aureus [4] = assay: Antibacterial activity against Staphylococcus aureus ATCC 25923 assessed as growth inhibition at 0.5 to 1 mg/mL after 24 hr by agar well diffusion method
Escherichia coli [5] = assay: Antibacterial activity against Escherichia coli ATCC 25922 assessed as growth inhibition at 0.5 to 1 mg/mL after 24 hr by agar well diffusion method
Pseudomonas aeruginosa [6] = assay: Antibacterial activity against Pseudomonas aeruginosa ATCC 27853 assessed as growth inhibition at 0.5 to 1 mg/mL after 24 hr by agar well diffusion method; assay type: functional
Escherichia coli [7] = assay: Antibacterial activity against Escherichia coli ATCC 25922 assessed as growth inhibition after 24 hr by serial broth dilution method; conditions: ATCC 25922, 24 h
Pseudomonas aeruginosa [8] = assay: Antibacterial activity against Pseudomonas aeruginosa ATCC 27853 assessed as growth inhibition at 50 mg/mL after 24 hr by agar well diffusion method; assay type: functional; conditions: ATCC 27853, 24 h, read-out: IZ
Aspergillus flavus [9] = assay: Antifungal activity against Aspergillus flavus assessed as growth inhibition at 50 mg/mL after 72 hr by agar well diffusion method; assay type: functional; conditions: read-out: IZ
[10] = tested on: Radical scavenging activity; assay: Antioxidant activity assessed as DPPH free radical scavenging activity at 100 ug/mL after 10 min UV-Vis spectrophotometric analysis relative to control; assay type: functional
Pseudomonas aeruginosa [11] = assay: Antibacterial activity against Pseudomonas aeruginosa ATCC 27853 assessed as growth inhibition after 24 hr by serial broth dilution method; assay type: functional; conditions: ATCC 27853, 24 h
Staphylococcus aureus [12] = assay: Antibacterial activity against Staphylococcus aureus ATCC 25923 assessed as growth inhibition after 24 hr by serial broth dilution method; conditions: ATCC 25923, 24 h
Candida albicans [13] = assay: Antifungal activity against Candida albicans MTCC227 assessed as growth inhibition after 72 hr by serial broth dilution method; conditions: MTCC227, 72 h
Escherichia coli [14] = assay: Antibacterial activity against Escherichia coli ATCC 25922 assessed as growth inhibition at 50 mg/mL after 24 hr by agar well diffusion method; conditions: ATCC 25922, 24 h, read-out: IZ
Aspergillus flavus [15] = assay: Antifungal activity against Aspergillus flavus assessed as growth inhibition after 72 hr by serial broth dilution method; assay type: functional
[16] = tested on: Chrysosporium keratinophilum; assay: Antifungal activity against Chrysosporium keratinophilum assessed as growth inhibition at 50 mg/mL after 72 hr by agar well diffusion method; assay type: functional; conditions: read-out: IZ
[17] = Metal chelating activity of the compound assessed as ferrous ion complex formation at 0.5 to 2 mg/mL after 10 min by spectrophotometric analysis
Candida albicans [18] = assay: Antifungal activity against Candida albicans MTCC227 assessed as growth inhibition at 50 mg/mL after 72 hr by agar well diffusion method; conditions: MTCC227, 72 h, read-out: IZ
Staphylococcus aureus [19] = assay: Antibacterial activity against Staphylococcus aureus ATCC 25923 assessed as growth inhibition at 50 mg/mL after 24 hr by agar well diffusion method; conditions: ATCC 25923, 24 h, read-out: IZ
[20] = tested on: Chrysosporium keratinophilum; assay: Antifungal activity against Chrysosporium keratinophilum assessed as growth inhibition after 72 hr by serial broth dilution method; assay type: functional

| SMILES | MIC (Escherichia coli [7]) [µg/mL] | zone of inhibition at 50000 µg/mL (Pseudomonas aeruginosa [8]) [mm] | zone of inhibition at 50000 µg/mL (Aspergillus flavus [9]) [mm] | Activity [10] [%] | MIC (Pseudomonas aeruginosa [11]) [µg/mL] | MIC (Staphylococcus aureus [12]) [µg/mL] | MIC (Candida albicans [13]) [µg/mL] | zone of inhibition at 50000 µg/mL (Escherichia coli [14]) [mm] | MIC (Aspergillus flavus [15]) [µg/mL] | zone of inhibition at 50000 µg/mL [16] [mm] | Activity [17] [%] | zone of inhibition at 50000 µg/mL (Candida albicans [18]) [mm] | zone of inhibition at 50000 µg/mL (Staphylococcus aureus [19]) [mm] | MIC [20] [µg/mL] | further results |
| --- | --- | --- | --- | --- | --- | --- | --- | --- | --- | --- | --- | --- | --- | --- | --- |
| OC(Cn1cncn1)(Cn1cncn1)c1ccc(F)cc1F [FLUCONAZOLE] |  |  |  |  |  |  |  |  |  |  |  |  |  |  | inhibition zone (IZ) [1]: 14 mm; MIC ([1]; Chrysosporium keratinophilum, 72 h): 40 µg/mL (≈ 131 µM); inhibition zone (IZ) (Aspergillus flavus [2]): 10 mm; MIC (Aspergillus flavus [2]; Aspergillus flavus, 72 h): 40 µg/mL (≈ 131 µM); inhibition zone (IZ) (Candida albicans [3]): 20 mm; MIC (Candida albicans [3]; Candida albicans, NCPF 3179, 72 h): 40 µg/mL (≈ 131 µM) |
| CN[C@@H]1[C@H](O[C@H]2[C@H](O[C@H]3[C@H](O)[C@@H](O)[C@H](N=C(N)N)[C@@H](O)[C@@H]3N=C(N)N)O[C@@H](C)[C@]2(O)C=O)O[C@@H](CO)[C@H](O)[C@H]1O [STREPTOMYCIN] |  |  |  |  |  |  |  |  |  |  |  |  |  |  | inhibition zone (IZ) (Staphylococcus aureus [4]): 12 mm; MIC (Staphylococcus aureus [4]; Staphylococcus aureus, ATCC 25923, 24 h): 30 µg/mL (≈ 51.6 µM); inhibition zone (IZ) (Escherichia coli [5]): 14 mm; MIC (Escherichia coli [5]; Escherichia coli, ATCC 25922, 24 h): 30 µg/mL (≈ 51.6 µM); inhibition zone (IZ) (Pseudomonas aeruginosa [6]): 13 mm; MIC (Pseudomonas aeruginosa [6]; Pseudomonas aeruginosa, ATCC 27853, 24 h): 30 µg/mL (≈ 51.6 µM) |
| O=C(O)c1ccc(NC(CC(=O)c2cc3ccccc3o2)c2ccccc2)cc1 (stereo not given) | 500 (≈ 1300 µM) | 3 | 3 | 52.2 | 500 (≈ 1300 µM) | 450 (≈ 1170 µM) | 400 (≈ 1040 µM) | 3 | 500 (≈ 1300 µM) | 2 | 69.6 | 2 | 3 | 500 (≈ 1300 µM) |  |
| O=C(O)c1ccc(NC(CC(=O)c2cc3ccccc3oc2=O)c2ccccc2)cc1 (stereo not given) | 50 (≈ 121 µM) | 12 | 11 | 64.6 | 150 (≈ 363 µM) | 100 (≈ 242 µM) | 150 (≈ 363 µM) | 10 | 250 (≈ 605 µM) | 13 | 64.3 | 17 | 11 | 200 (≈ 484 µM) |  |
